# Assay results reported in patent US20180000942A1, “COMPOSITIONS FOR DRUG ADMINISTRATION” (priority 2013, published 2018).
# Key:
# blood D-glucose = test: Glucagon eye drops with surfactant, blood D-glucose; details: 0.5% surfactant plus glucagon (30 μg) eye drops
# Procedure: Glucagon absorption from the eye was measured in rats given eye drops containing various surfactants plus glucagon (30 μg) (Eli Lilly, Indianapolis, Ind.) by monitoring an elevation in blood D-glucose levels. In these experiments, rats were anesthetized with sodium pentobarbital rather than xylazine/ketamin.
# Paired animals that receive eye drops containing the surfactant alone, or glucagon alone, were compared to animals receiving eye drops with the surfactant plus glucagon.
# blood glucose [1] = test: Insulin eye drops with absorption enhancer in xylazine/ketamine anesthetized rats, blood glucose
# [2] = Oral phenylephrine tablets with alkylsaccharide; assay type: in vivo, canine
# Procedure: In a canine model, subjects were dosed orally with various phenylephrine (PE) tablet formulations, and blood samples were taken to determine the rate of parent phenyl ethyl phenylephrine absorption. Blood levels of parent phenylephrine were measured. Three subject groups were created with each alkylsaccharide test group containing five subjects in each test group. All subject groups received 10 mg of phenylephrine as a single tablet. Each subject was in the fasting state for overnight and two hours post dose. Blood samples were taken at pre-dose, 5, 10, 15, 30, 45 min., 1, 2, and 3 hours.
# Comparator was the standard 30 mg (total weight including excipients) phenylephrine tablet was no absorption enhancer. Group number 2 tablets contain the alkylsaccharide designated A3, which is n-dodecyl-beta-D-maltoside in the amounts of 2.5 mg, 5 mg, and 7.5 mg, respectively. Group number three tablets contain the alkylsaccharide designated B3, which is sucrose monododecanoate, in the amounts of 5 mg, 10 mg, and 20 mg, respectively.
# [3] = system: Escherichia coli (ATCC No. 8739); test: Log reduction of microorganisms in cultures with alkylglycoside; assay type: cell-based; details: for Log reduction of cultures: PBS pH 7, 1 mg/mL PYY
# Text: (§1) 20110-2209. The viable microorganisms used in the invention were not more than five passages removed from the original ATCC culture. As described herein, one passage is defined as the transfer of organisms from an established culture to fresh medium and all transfers are counted.
# (§2) The culture conditions for the inoculum culture is substantially as described in Table IV. For example, suitable media can include but is not limited to, Soybean-Casein Digest or Sabouraud Dextrose Agar Medium. […]
# (§3) The suspension should be refrigerated if it is not used within 2 hours. To confirm the initial cfu per mL estimate, the number of cfu per mL in each suspension was determined using the conditions of media and microbial recovery incubation times listed in Table IV (e.g., from about 3 to about 7 days). This value serves to calibrate the size of inoculum used in the test. The bacterial and yeast suspensions were used within 24 hours of harvest; whereas the fungal preparation can be stored under refrigeration for up to 7 days.
# (§4) To determine which alkylglycoside formulations have antibacterial activity, the formulations were prepared in phosphate buffered saline (PBS) at pH 7. As a source of nutrition, either 1.5 mg/mL bovine serum albumin (BSA; see Tables V and VI) or 1 mg/mL of PYY was added (see Table VII) to the medium. BSA (CAS Number: 9048-46-8) was obtained from Sigma-Aldrich, St. Louis, Mo., USA, n-dodecyl-4-O-α-D-glucopyranosyl-β-D-glucopyranoside and n-tetradecyl-4-O-α-D-glucopyranosyl-β-D-glucopyranoside were obtained from Anatrace Inc., Maumee, Ohio, USA, and PYY was obtained from Bachem California Inc., Torrance, Calif., USA.
# (§5) Antibacterial activity of the alkylglycosides were conducted in four sterile, capped bacteriological containers of suitable size into which a sufficient volume of alkylglycoside solution had been transferred. Each container was inoculated with one of the prepared and standardized inoculums and mixed. The volume of the suspension inoculum was between about 0.5% and about 1.0% of the volume of the alkylglycoside solution. […]. To determine the level of inhibition of growth, or reduction of growth based on a logarithmic scale, the initial concentration of viable microorganisms in each test preparation was estimated based on the concentration of microorganisms in each of the standardized inoculum as determined by the plate-count method. The inoculated containers were then incubated at about 22.5° C.±2.5. The growth or non-growth of the microorganisms in each culture/container were again determined at day 14 and day 28. The number of cfu present in each calculation was determined by the plate-count procedure standard in the art for the applicable intervals. The change in the orders of magnitude of bacterium and/or fungi was then determined by subtracting the first calculated log 10 values of the concentrations of cfu per mL present at the start or beginning (e.g., day 0), from the log 10 values of the concentration of cfu per mL for each microorganism at the applicable test intervals (e.g., day 14 and day 28; see Tables V, VI and VII).
# [4] = system: Staphylococcus aureus (ATCC No. 6538); test: as above; assay type: cell-based; details: for Log reduction of cultures: PBS pH 7, 1 mg/mL PYY; for Log reduction of microorganisms: PBS pH 7, […] BSA
# Text: as §1, §2, §3, §4, §5
# [5] = system: Aspergillus niger (ATCC No. 16404); test: as above; assay type: cell-based; details: for Log reduction of cultures: PBS pH 7, 1 mg/mL PYY; for Log reduction of microorganisms: PBS pH 7, […] BSA
# Text: as §1, §2, §3, §4, §5
# [6] = system: Candida albicans (ATCC No. 10231); test: as above; assay type: cell-based; details: for Log reduction of cultures: PBS pH 7, 1 mg/mL PYY; for Log reduction of microorganisms: PBS pH 7, […] BSA
# Text: as §1, §2, §3, §4, §5
# [7] = no alkylsaccharide, cited from earlier work
# human nasal epithelium = test: Irritation of nasal mucosa on daily intranasal administration; details: 47 days
# food intake = details: injection; cited from earlier work
# blood glucose [8] = test: Intranasal insulin with […] TDM in anesthesia-induced hyperglycemia model; assay type: in vivo, mouse; details: minus […] TDM
# Text: Intranasal administration of drugs or agents are possible in animal models e.g. mice and rats, although the nasal opening in is very small. In the experiments and results described herein, an anesthesia-induced hyperglycemia model was used (described in Examples above). Hyperglycemic animals were induced by an intraperitoneal (IP) injection containing xylazine-ketamine and blood glucose levels were monitored over a period of time. Immediately after the xylazine-ketamine injection, there was an increase in the blood glucose levels as shown in FIG. 2 (closed dark circles), and blood glucose levels were about 450 mg/dl. […] Blood glucose levels peak to about 482 mg/dl by 30 minutes after the xylazine-ketamine injection (FIG. 2). […] At about the 75 minute time point, blood glucose levels gradually returned to the baseline level in a normoglycemic mouse, or about 80-100 mg/dl.
compound,measurement,setting,value
"CCCCCCCCCCO[C@@H]1O[C@H](CO)[C@@H](O[C@H]2O[C@H](CO)[C@@H](O)[C@H](O)[C@H]2O)[C@H](O)[C@H]1O [Decyl Maltoside, decyl-β-D-maltoside]","level of D-glucose in blood after eye drops with surfactant plus glucagon, in words",blood D-glucose,increase significantly
same,"effect as absorption enhancer for ocular insulin (blood glucose lowering), in words",blood glucose [1]; 0.5% enhancer,prompt and sustained fall in blood glucose levels
"CCCCCCCCCCCCO[C@@H]1O[C@H](CO)[C@@H](O[C@H]2O[C@H](CO)[C@@H](O)[C@H](O)[C@H]2O)[C@H](O)[C@H]1O [Dodecyl Maltoside, n-Dodecyl-4-O-α-D-glucopyranosyl-β-D-glucopyranoside]",increase of oral bioavailability of phenylephrine in compressed tablets,"[2]; dog, in vivo, po",up to 56%
same,Log reduction of cultures,[3]; Day 14,≧5 orders of orders of magnitude reduction
same,Log reduction of cultures,[3]; Day 28,≧5 orders of orders of magnitude reduction
same,Log reduction of microorganisms,"[3]; PBS pH 7, […] BSA, Day 28",0.1 orders of orders of magnitude reduction
same,Log reduction of cultures,[4]; Day 14,≧4.9 orders of orders of magnitude reduction
same,Log reduction of cultures,[4]; Day 28,≧4.9 orders of orders of magnitude reduction
same,Log reduction of microorganisms,[4]; Day 14,≧5.2 orders of orders of magnitude reduction
same,Log reduction of microorganisms,[4]; Day 28,≧5.2 orders of orders of magnitude reduction
same,Log reduction of cultures,[5]; Day 14,4.7 orders of orders of magnitude reduction
same,Log reduction of cultures,[5]; Day 28,4.7 orders of orders of magnitude reduction
same,Log reduction of microorganisms,[5]; Day 14,0.7 orders of orders of magnitude reduction
same,Log reduction of microorganisms,[5]; Day 28,No growth
same,Log reduction of cultures,[6]; Day 14,≧4.5 orders of orders of magnitude reduction
same,Log reduction of cultures,[6]; Day 28,≧4.5 orders of orders of magnitude reduction
same,Log reduction of microorganisms,[6]; Day 14,3.0 orders of orders of magnitude reduction
same,Log reduction of microorganisms,[6]; Day 28,≧5.3 orders of orders of magnitude reduction
same,"effect as absorption enhancer for ocular insulin (blood glucose lowering), in words",blood glucose [1]; 0.5% enhancer,equally effective
same,"effect as absorption enhancer for ocular insulin (blood glucose lowering), in words","blood glucose [1]; 0.5% enhancer, listed as dodecyl-β-D-maltoside",prompt and sustained fall in blood glucose levels
"CCCCCCCCCCCCCO[C@@H]1O[C@H](CO)[C@@H](O[C@H]2O[C@H](CO)[C@@H](O)[C@H](O)[C@H]2O)[C@H](O)[C@H]1O [Tridecyl Maltoside, tridecyl-β-D-maltoside]","level of D-glucose in blood after eye drops with surfactant plus glucagon, in words",blood D-glucose,increase significantly
same,"effect as absorption enhancer for ocular insulin (blood glucose lowering), in words",blood glucose [1]; 0.5% enhancer,effective
same,"effect as absorption enhancer for ocular insulin (blood glucose lowering), in words",blood glucose [1]; […] enhancer,sustained for the two hour time course of the experiment
"CCCCCCCOC1O[C@H](CO)[C@@H](O)[C@H](O)[C@H]1O (stereo partly shown) [heptylglucoside, heptylglucopyranoside]","effect as absorption enhancer for ocular insulin (blood glucose lowering), in words",blood glucose [1]; 0.5% enhancer,ineffective
"CCCCCCOC1O[C@H](CO)[C@@H](O)[C@H](O)[C@H]1O (stereo partly shown) [hexylglucoside, Hexylglucopyranoside]","effect as absorption enhancer for ocular insulin (blood glucose lowering), in words",blood glucose [1]; 0.5% enhancer,ineffective
"CCCCCCCCCOC1O[C@H](CO)[C@@H](O)[C@H](O)[C@H]1O (stereo partly shown) [nonylglucoside, nonylglucopyranoside]","effect as absorption enhancer for ocular insulin (blood glucose lowering), in words",blood glucose [1]; 0.5% enhancer,effectively stimulated insulin absorption
same,blood glucose level before reduction (from),"blood glucose [1]; eye drops insulin + 0.5% enhancer, initial value",297 mg/dL
same,blood glucose level after reduction (to),"blood glucose [1]; eye drops insulin + 0.5% enhancer, reduced value",150 mg/dL
"Cc1cc2c(s1)Nc1ccccc1N=C2N1CCN(C)CC1 [olanzapine, Olanzapine]",time to peak concentrations,[7]; following an oral dose,approximately 6 hours
same,dose metabolized by first pass before reaching the systemic circulation,[7],approximately 40%
"CCCCCCCCCCCC(=O)OC[C@H]1O[C@H](O[C@]2(CO)O[C@H](CO)[C@@H](O)[C@@H]2O)[C@H](O)[C@@H](O)[C@@H]1O [sucrose dodecanoate, sucrose monododecanoate]",increase of oral bioavailability of phenylephrine in compressed tablets,[2]; maximum over the loadings tested,up to 50%
same,irritation of the nasal mucosa,human nasal epithelium,no observable irritation
PYY: gut hormone fragment peptide PYY3-36,reduction of food eaten versus usual,food intake,30%
decylsucrose,Blood Glucose Concentration,"blood glucose [1]; eye drops insulin + 0.5% enhancer, time 0 min",313 mg/dL
same,Blood Glucose Concentration,"blood glucose [1]; eye drops insulin + 0.5% enhancer, time 120 min",164 mg/dL
"insulin alone: insulin (Humalog), same dosage, minus 0.25% TDM",return of blood glucose to normoglycemic levels,blood glucose [8],never return to normoglycemic levels
same,time at which blood glucose levels start to decline,blood glucose [8]; same dosage,~120 minute time mark
